Data on one molecule can be found in paper PMC6572376, “N1-Propargylguanosine Modified mRNA Cap Analogs: Synthesis, Reactivity, and Applications to the Study of Cap-Binding Proteins” (Molecules, 2019).

The target of this experiment is T1, hDcpS (Homo sapiens, UniProt Q96C86).
T1 construct: made in house
T1 sequence (Q96C86 1-337): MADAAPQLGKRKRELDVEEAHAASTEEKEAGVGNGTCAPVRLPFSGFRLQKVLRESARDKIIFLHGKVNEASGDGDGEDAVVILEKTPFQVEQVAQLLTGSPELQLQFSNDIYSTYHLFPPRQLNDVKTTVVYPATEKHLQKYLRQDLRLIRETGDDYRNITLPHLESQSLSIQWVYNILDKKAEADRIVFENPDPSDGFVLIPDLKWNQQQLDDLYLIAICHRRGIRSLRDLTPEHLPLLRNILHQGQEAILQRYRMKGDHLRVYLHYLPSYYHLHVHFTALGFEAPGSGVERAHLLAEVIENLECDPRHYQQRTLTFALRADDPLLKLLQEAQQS
The experiment can be described thus: hDcpS cleavage of fluorescent probes monitored by emission spectroscopy. Format: biochemical. Conditions: 30 nM hDcpS; probe 30 µM / 100 nM (legend, methods). As for the experimental part: Fluorescently labeled cap analogs that serve as DcpS substrates can be considered as activity probes. We performed an enzymatic cleavage test with 30 nM hDcpS and 30 µM probe to evaluate whether fluorescently labeled derivatives of cap analog 1 (probes 6–9) can be used to monitor enzymatic activity via changes in fluorescence emission. […] For the Py-labeled probe 9, the fluorescence intensity at the emission maximum increased by 50% after complete DcpS cleavage (Figure 4c and Figure S3). Nevertheless, certain previously developed probes provided higher sensitivity than the one formulated here.
Human DcpS was expressed and purified as described previously. Enzyme was stored at −80 °C at 10 µM concentration (monomer). Enzyme hDcpS was preincubated at 30 °C for 15 min before usage. […] Reaction progress was monitored by recording emission spectra, upon excitation at the wavelength characteristic for a fluorophore studied, using Cary Eclipse (Agilent Technologies, Santa Clara, CA, USA) equipped with a xenon lamp in a quartz cuvette (10 mm × 4 mm).
Figure 4 The influence of complete cleavage by hDcpS (30 nM) on the fluorescence properties of probes 6–9 (100 nM). Emission spectra before (0 min) and after (60 min) decapping scavenger (DcpS) cleavage for compounds 6 (a) and 9 (b); (c) The ratios of fluorescence intensity after and before cleavage (I/I0) for all studied probes.

Molecules are shown by their SMILES.

With `C[n+]1cn([C@@H]2O[C@H](COP(=O)(O)OP(=O)([O-])OP(=O)(O)OC[C@H]3O[C@@H](n4cnc5c(=O)n(Cc6cn(CCOCCOCCNC(=O)Cc7ccc8ccc9cccc%10ccc7c8c9%10)nn6)c(N)nc54)[C@H](O)[C@@H]3O)[C@@H](O)[C@H]2O)c2nc(N)nc(O)c21` [Compound 9, m^7Gp3G-N1-Py], the “Increase of fluorescence intensity at the emission maximum after complete DcpS cleavage” value is listed as 50%.
